# In patent US20230372318A1, “METHODS FOR TREATING A SUBJECT HAVING MULTIPLE SYSTEM ATROPHY” (Theravance Biopharma R&D IP, LLC, priority 2022, published 2023):
# Tested on: subjects with primary autonomic failures (MSA, PD, or PAF) and symptomatic nOH
# Assay: Phase 3 22-week randomized withdrawal study in symptomatic nOH (Example 7)
# Format: in vivo, human
# Parameters: OHSA composite score, LS Mean / OHSA composite score, Mean / OHSA composite score, Median / OHSA composite score, LS Mean Difference / OHDAS item 1 (standing for a short time) score, Mean / OHDAS item 1 (standing for a short time) score, Median / OHDAS item 1 (standing for a short time) score, LS Mean / OHDAS item 1 (standing for a short time) score, LS Mean Difference: scale not given here
# Conditions: MSA subjects; for OHSA composite score, LS Mean / OHSA composite score, Mean / OHSA composite score, Median / OHSA composite score, LS Mean Difference: change at week 22, end of 6-week double-blind period; for OHSA composite score, LS Mean Difference / OHDAS item 1 (standing for a short time) score, LS Mean Difference: vs placebo; for OHDAS item 1 (standing for a short time) score, LS Mean / OHDAS item 1 (standing for a short time) score, Mean / OHDAS item 1 (standing for a short time) score, Median / OHDAS item 1 (standing for a short time) score, LS Mean Difference: week 22, end of 6-week double-blind period
# Method: The study consisted of a 16-week open-label (OL) treatment period with ampreloxetine followed by a 6-week double-blind randomized withdrawal period where subjects were administered either ampreloxetine or placebo.
# Eligible subjects were either (i) completers of the study of Example 6 (“Completers Group”), or (ii) symptomatic nOH subjects meeting all applicable study inclusion criteria and none of the applicable exclusion criteria (“De Novo Group”).
# A 4-week screening period applied to the De Novo Group only and the Screening visit was conducted in clinic for all De Novo Group subjects.
# A total of 203 subjects entered this study (170 subjects from Example 6 (85 from the ampreloxetine group and 85 from the placebo group) and 33 de novo subjects). During the OL period, 55 subjects discontinued treatment. At 16 weeks, 64 subjects were randomized to the ampreloxetine group (6 subjects discontinued the study) and 64 subjects were randomized to the placebo group (3 subjects discontinued the study). A total of 119 subjects completed the study. Of the 128 subjects entering the randomized period, 40 subjects had MSA (31%); 68 subjects had PD (53%); and 20 subjects had PAF (16%) (in each category, the subjects were split equally between ampreloxetine and placebo).
# Beginning on Day 2, subjects received a single dose of 10 mg ampreloxetine once daily (QD) and continued thereafter for the 16-week duration of the OL treatment period. Following this 16-week OL treatment period, subjects were randomized to either continue on the active treatment or placebo (“PBO”) for a period of 6 weeks.
# Subjects enrolled into the OL period of the study had visits scheduled for Day 15, Day 29, and every 4 weeks thereafter for assessments as outlined in the Schedule of Study Procedures. […] Those subjects not meeting this continuation criterion were discontinued and underwent an end of study visit. The end of study visit was completed within 2 weeks from the date of the last dose.
# Following the completion of a total of 16 weeks OL treatment with ampreloxetine (V6), subjects were assessed for randomization in a 1:1 manner. Eligible subjects received 6 weeks of double-blind treatment of ampreloxetine or PBO once daily. Only subjects with OHSA #1 score of ≤7 were eligible for randomization for the double-blind treatment period.
# Exploratory assessments included: orthostatic standing test; NMSS; EQ-5D-5L; HADS; and BSFC-s. For subjects with PD, exploratory assessments included: Unified Parkinson's Disease Rating Scale (UPDRS); and Parkinson's Disease Questionaire-8 (PDQ-8). For subjects with MSA, exploratory assessments included: Unified Multiple System Atrophy Rating Scale (UMSARS); and Composite Autonomic Symptom Score-31 (COMPASS-31).
# The secondary endpoints included: • (a) Change from baseline in OHSA #1 at Week 6 post randomization (V9, D155); • (b) Change from baseline in OHSA composite score at Week 6 post randomization (V9, D155); • (c) Change from baseline in OHDAS composite score at Week 6 post randomization (V9, D155); • (d) Change from baseline in PGI-S at Week 6 post randomization (V9, D155); • (e) Change from baseline in percentage of time spent in standing position as measured by a wearable device at Week 6 post randomization (V9, D155); and • (f) Change from baseline in average number of steps taken as measured by a wearable device at Week 6 post randomization (V9, D155).
smiles,measurement,setting,value
"Fc1cc(F)c(OCc2ccccc2C2CCNCC2)c(F)c1 [Ampreloxetine, 4-[2-(2,4,6-trifluorophenoxymethyl)phenyl]piperidine]","OHSA composite score, LS Mean",<65 Years,0.55
same,"OHSA composite score, Mean",<65 Years,0.8
same,"OHSA composite score, Median",<65 Years,0.4
same,"OHSA composite score, LS Mean Difference",<65 Years,−1.09
same,"OHDAS item 1 (standing for a short time) score, LS Mean",<65 Years,−0.5
same,"OHDAS item 1 (standing for a short time) score, Mean",<65 Years,0.0
same,"OHDAS item 1 (standing for a short time) score, Median",<65 Years,0.0
same,"OHDAS item 1 (standing for a short time) score, LS Mean Difference",<65 Years,−2.9
same,"OHSA composite score, LS Mean",>=65 Years,−0.60
same,"OHSA composite score, Mean",>=65 Years,−0.75
same,"OHSA composite score, Median",>=65 Years,−0.70
same,"OHSA composite score, LS Mean Difference",>=65 Years,−2.17
same,"OHDAS item 1 (standing for a short time) score, LS Mean",>=65 Years,−0.4
same,"OHDAS item 1 (standing for a short time) score, Mean",>=65 Years,−0.3
same,"OHDAS item 1 (standing for a short time) score, Median",>=65 Years,0.0
same,"OHDAS item 1 (standing for a short time) score, LS Mean Difference",>=65 Years,−1.0
same,"OHSA composite score, LS Mean",Female,0.2078
same,"OHSA composite score, Mean",Female,0.23
same,"OHSA composite score, Median",Female,0.00
same,"OHSA composite score, LS Mean Difference",Female,−1.3996
same,"OHDAS item 1 (standing for a short time) score, LS Mean",Female,0.2
same,"OHDAS item 1 (standing for a short time) score, Mean",Female,0.3
same,"OHDAS item 1 (standing for a short time) score, Median",Female,0.0
same,"OHDAS item 1 (standing for a short time) score, LS Mean Difference",Female,−1.0
same,"OHSA composite score, LS Mean",MSA diagnosis <1.3 years,0.73
same,"OHSA composite score, Mean",MSA diagnosis <1.3 years,0.67
same,"OHSA composite score, Median",MSA diagnosis <1.3 years,0.70
same,"OHSA composite score, LS Mean Difference",MSA diagnosis <1.3 years,−1.24
same,"OHDAS item 1 (standing for a short time) score, LS Mean",MSA diagnosis <1.3 years,0.7
same,"OHDAS item 1 (standing for a short time) score, Mean",MSA diagnosis <1.3 years,0.1
same,"OHDAS item 1 (standing for a short time) score, Median",MSA diagnosis <1.3 years,0.0
same,"OHDAS item 1 (standing for a short time) score, LS Mean Difference",MSA diagnosis <1.3 years,−2.7
same,"OHSA composite score, LS Mean",MSA diagnosis >=1.3 years,−0.67
same,"OHSA composite score, Mean",MSA diagnosis >=1.3 years,−0.64
same,"OHSA composite score, Median",MSA diagnosis >=1.3 years,−0.10
same,"OHSA composite score, LS Mean Difference",MSA diagnosis >=1.3 years,−1.78
same,"OHDAS item 1 (standing for a short time) score, LS Mean",MSA diagnosis >=1.3 years,−0.6
same,"OHDAS item 1 (standing for a short time) score, Mean",MSA diagnosis >=1.3 years,−0.4
same,"OHDAS item 1 (standing for a short time) score, Median",MSA diagnosis >=1.3 years,0.0
same,"OHDAS item 1 (standing for a short time) score, LS Mean Difference",MSA diagnosis >=1.3 years,−0.7
same,"OHSA composite score, LS Mean",MSA-C,1.10
same,"OHSA composite score, Mean",MSA-C,0.76
same,"OHSA composite score, Median",MSA-C,0.50
same,"OHSA composite score, LS Mean Difference",MSA-C,−0.68
same,"OHDAS item 1 (standing for a short time) score, LS Mean",MSA-C,0.9
same,"OHDAS item 1 (standing for a short time) score, Mean",MSA-C,0.7
same,"OHDAS item 1 (standing for a short time) score, Median",MSA-C,0.0
same,"OHDAS item 1 (standing for a short time) score, LS Mean Difference",MSA-C,−1.0
same,"OHSA composite score, LS Mean",MSA-P,−0.50
same,"OHSA composite score, Mean",MSA-P,−0.39
same,"OHSA composite score, Median",MSA-P,0.05
same,"OHSA composite score, LS Mean Difference",MSA-P,−1.72
same,"OHDAS item 1 (standing for a short time) score, LS Mean",MSA-P,−1.2
same,"OHDAS item 1 (standing for a short time) score, Mean",MSA-P,−0.7
same,"OHDAS item 1 (standing for a short time) score, Median",MSA-P,0.0
same,"OHDAS item 1 (standing for a short time) score, LS Mean Difference",MSA-P,−2.7
same,"OHSA composite score, LS Mean",Male,−0.3923
same,"OHSA composite score, Mean",Male,−0.46
same,"OHSA composite score, Median",Male,0.20
same,"OHSA composite score, LS Mean Difference",Male,−1.8762
same,"OHDAS item 1 (standing for a short time) score, LS Mean",Male,−1.2
same,"OHDAS item 1 (standing for a short time) score, Mean",Male,−0.8
same,"OHDAS item 1 (standing for a short time) score, Median",Male,0.0
same,"OHDAS item 1 (standing for a short time) score, LS Mean Difference",Male,−2.8
same,"OHSA composite score, Mean",Overall,−0.05
same,"OHSA composite score, Median",Overall,0.05
same,"OHSA composite score, LS Mean","Overall, placebo 1.54, p=0.0056",−0.03
same,"OHSA composite score, LS Mean Difference",Overall,−1.57
same,"OHDAS item 1 (standing for a short time) score, LS Mean",Overall,−0.4
same,"OHDAS item 1 (standing for a short time) score, Mean",Overall,−0.2
same,"OHDAS item 1 (standing for a short time) score, Median",Overall,0.0
same,"OHDAS item 1 (standing for a short time) score, LS Mean Difference",Overall,−2.0
same,"OHSA composite score, LS Mean",Pre treatment baseline OHSA1 <7,−0.22
